The values below come from ChEMBL document CHEMBL3632621, “Conformationally restricted κ-opioid receptor agonists: Synthesis and pharmacological evaluation of diastereoisomeric and enantiomeric decahydroquinoxalines” (Bioorg Med Chem Lett, 2015).

The target in assay [1] is Mu-type opioid receptor (Cavia porcellus, UniProt P97266). As to the kind of experiment: Displacement of [3H]-DAMGO from mu opioid receptor in guinea pig brain membrane after 120 mins by scintillation counting. The assay is classed as cell membranes.
Chain of Mu-type opioid receptor (P97266 whole entry): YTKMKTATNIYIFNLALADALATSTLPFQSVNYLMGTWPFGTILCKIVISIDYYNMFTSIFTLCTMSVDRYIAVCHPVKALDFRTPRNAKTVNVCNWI
Assay [2] has as its target T1, Kappa-type opioid receptor (Homo sapiens, UniProt P41145). Description: Binding affinity to kappa opioid receptor (unknown origin).
The target of assay [3] is Kappa-type opioid receptor (Cavia porcellus, UniProt P41144). As to the kind of experiment: Displacement of [3H]-U-69593 from kappa opioid receptor in guinea pig brain membrane after 120 mins by scintillation counting. The assay is classed as cell membranes. Background: Displacement assays read how much labelled ligand stays bound in the presence of the test substance.
Chain of Kappa-type opioid receptor (Cavia porcellus, UniProt P41144) (P41144 whole entry): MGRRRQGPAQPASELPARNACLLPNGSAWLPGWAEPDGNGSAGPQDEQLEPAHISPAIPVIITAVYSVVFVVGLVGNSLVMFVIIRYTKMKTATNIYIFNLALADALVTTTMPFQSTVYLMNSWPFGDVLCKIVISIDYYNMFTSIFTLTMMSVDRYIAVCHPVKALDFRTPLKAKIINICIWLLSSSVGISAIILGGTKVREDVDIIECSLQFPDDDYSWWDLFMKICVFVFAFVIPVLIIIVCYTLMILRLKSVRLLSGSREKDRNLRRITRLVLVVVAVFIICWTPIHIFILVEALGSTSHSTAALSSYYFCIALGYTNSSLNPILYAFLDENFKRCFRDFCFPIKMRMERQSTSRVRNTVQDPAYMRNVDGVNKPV

The target in assay [4] is Delta-type opioid receptor (Rattus norvegicus, UniProt P33533). As to the kind of experiment: Displacement of [3H]-DPDPE from delta opioid receptor in rat brain membrane after 120 mins by scintillation counting. The assay is classed as cell membranes.
Chain of Delta-type opioid receptor (P33533 whole entry): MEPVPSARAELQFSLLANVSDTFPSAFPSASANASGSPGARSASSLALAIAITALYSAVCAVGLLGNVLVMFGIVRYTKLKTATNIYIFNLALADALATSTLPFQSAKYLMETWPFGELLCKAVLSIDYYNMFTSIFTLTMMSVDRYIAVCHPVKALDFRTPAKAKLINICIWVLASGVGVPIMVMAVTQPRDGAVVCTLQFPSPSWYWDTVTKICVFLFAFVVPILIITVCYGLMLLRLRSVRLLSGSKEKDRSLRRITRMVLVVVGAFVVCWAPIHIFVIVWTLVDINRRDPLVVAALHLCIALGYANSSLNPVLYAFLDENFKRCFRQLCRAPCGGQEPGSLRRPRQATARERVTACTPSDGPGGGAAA
The target of assay [5] is T1, Kappa-type opioid receptor. Description: Intrinsic activity at kappa opioid receptor in human HEK293 cells at 100 nM after 30 mins by [35S]GTPgammaS binding assay relative to U-69593. The assay is classed as functional, cell-based. In general terms: GTPγS is a poorly hydrolysed GTP analogue; its binding reports G protein activation.

T1 sequence (P41145 whole entry): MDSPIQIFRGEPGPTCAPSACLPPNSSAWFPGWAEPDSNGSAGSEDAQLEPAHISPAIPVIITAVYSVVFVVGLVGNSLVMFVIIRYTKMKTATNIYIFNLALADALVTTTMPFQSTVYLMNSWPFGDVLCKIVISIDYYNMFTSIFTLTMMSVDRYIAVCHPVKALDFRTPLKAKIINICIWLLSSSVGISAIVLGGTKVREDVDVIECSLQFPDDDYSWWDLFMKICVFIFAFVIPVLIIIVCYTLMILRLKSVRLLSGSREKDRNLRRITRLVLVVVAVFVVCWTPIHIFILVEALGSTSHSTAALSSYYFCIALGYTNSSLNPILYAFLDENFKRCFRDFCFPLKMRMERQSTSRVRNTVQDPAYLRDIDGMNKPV

As for `COC(=O)N1CCN(C(=O)Cc2ccc(Cl)c(Cl)c2)[C@H]2[C@H](N3CCCC3)CCC[C@H]21`, the Ki – broadly, a measure of affinity in units of concentration, obtained from inhibition or displacement – in assay [1] is 544 nM. Take `COC(=O)N1CCN(C(=O)Cc2ccc(Cl)c(Cl)c2)[C@@H]2[C@@H](N3CCCC3)CCC[C@@H]21`: in assay [1], the inhibition constant (Ki) came out at 43 nM.

For `COC(=O)N1CCN(C(=O)Cc2ccc(Cl)c(Cl)c2)[C@H](CN2CCCC2)C1`, the results for the Ki in assay [2] and in assay [3] were 360 nM and 0.36 nM, respectively. Turning to `COC(=O)N1CCN(C(=O)Cc2ccc(Cl)c(Cl)c2)[C@H]2[C@H](N3CCCC3)CCC[C@H]21` (racemic), in assay [1], affinity was put at a Ki of 113 nM.

As for `COC(=O)N1CCN(C(=O)Cc2ccc(Cl)c(Cl)c2)[C@H]2[C@H](N3CCCC3)CCC[C@@H]21` (stereo in doubt), the affinity in assay [1], expressed as Ki, was 309 nM.

Regarding `COC(=O)N1CCN(C(=O)Cc2ccc(Cl)c(Cl)c2)[C@H]2[C@@H](N3CCCC3)CCC[C@@H]21` (stereo in doubt), in assay [1], the affinity corresponds to a Ki of 343 nM. Same read-out and setting: for `COC(=O)N1CCN(C(=O)Cc2ccc(Cl)c(Cl)c2)[C@@H]2[C@H](N3CCCC3)CCC[C@H]21` (stereo in doubt) the value was 118 nM. `CN(C(=O)/C=C/c1ccoc1)[C@@H]1CC[C@@]2(O)[C@H]3Cc4ccc(O)c5c4[C@@]2(CCN3CC2CC2)[C@H]1O5` [NALFURAFINE] gave an inhibitory constant (Ki) in assay [4] of 0.37 nM. In assay [5], this compound showed an Activity of 100%.
